Data reported in paper PMC3656252 (The Journal of Biological Chemistry, 2013).
No end group written: not given here.

Legend:
[1] = test system: DP8; experiment: 1.7 milliunits of recombinant DP8 in assay buffer: 50 mM Tris, 100 mM NaCl, pH 8.0; conditions: human, 37 °C, up to 24 h
[2] = test system: DP9; experiment: 1.7 milliunits of recombinant DP9 in assay buffer: 50 mM Tris, 100 mM NaCl, pH 8.0; conditions: human, 37 °C, up to 24 h
[3] = test system: DP8; conditions: cited from earlier work
From the text: (§1) In vitro, both DP8 and DP9 cleave the well known DP4 substrates neuropeptide Y(1–36), glucagon-like peptide-1(7–36), glucagon-like peptide-2(1–33), and peptide YY(1–36) ([18], [19]). […] However, as DP8 and DP9 are intracellular enzymes, it is unlikely that these secreted substrates will be of physiological relevance in vivo. Clues for their in vivo roles come from studies blocking DP ...

[4] = test system: DP9; conditions: cited from earlier work
From the text: as §1

What does the source list for AEVKKPAAAAAPGTAEKLSP?
not cleaved [1]: nc (not cleaved) after 24 h; not cleaved [2]: nc (not cleaved) after 24 h

Which cleaved bond [1] does the source give for APAEILNGKEISAQIR here?
The cleaved bond was “P-A”.

What about the cleaved bond [2] of the same molecule?
The cleaved bond was “P-A”.

Which cleaved bond [1] does the source give for APGQLALFSVSDKTGLVEFAR here?
Its cleaved bond is “P-G”.

What about the cleaved bond [2] of the same molecule?
Its cleaved bond is “P-G”.

Which results are given for APKFPDSVEELRAAG?
cleaved bond [1]: P-K; cleaved bond [2]: P-K

Which cleaved bond [1] does the source give for APLDLDKYVEIARLCK here?
The cleaved bond was “P-L”.

What about the cleaved bond [2] of the same molecule?
The cleaved bond was “P-L”.

Which results are given for APSVPAAEPEYPKGIR?
cleaved bond [1]: P-S, 1 h; cleaved bond [2]: P-S, 1 h

Which cleaved bond [1] does the source give for APVLSKDSADIESILALNPR here?
Its cleaved bond is “P-V”.

And the cleaved bond [2]?
Its cleaved bond is “P-V”.

Which results are given for ASGANFEYIIAEKRGK?
not cleaved [1]: nc (not cleaved) after 24 h; not cleaved [2]: nc (not cleaved) after 24 h

With ATAKGIAIGIDLGTTYSCVG as the molecule, how does the not cleaved [1] read?
The not cleaved was “nc (not cleaved) after 24 h”.

What about the not cleaved [2] of the same molecule?
Its not cleaved is “nc (not cleaved) after 24 h”.

For DDEVDVDGTVEEDLGKSR, which not cleaved [1] is on record?
The not cleaved was “nc (not cleaved) after 24 h”.

What about the not cleaved [2] of the same molecule?
Its not cleaved is “nc (not cleaved) after 24 h”.

For EPAVYFKEQFLDGDGWTSR, which cleaved bond [1] is on record?
Its cleaved bond is “P-A, 1 h”.

What about the cleaved bond [2] of the same molecule?
Its cleaved bond is “P-A, 1 h”.

Which cleaved bond [1] does the source give for PPKKGGDGIKPPPIIGR here?
The cleaved bond was “P-K”.

And the cleaved bond [2]?
The cleaved bond was “P-K”.

For SPADLPKSWDWRNVDG, which cleaved bond [1] is on record?
The cleaved bond was “P-A”.

And the cleaved bond [2]?
Its cleaved bond is “P-A”.

For VSKPTLKEVVIVSATR, which not cleaved [1] is on record?
Its not cleaved is “nc (not cleaved) after 24 h”.

And the not cleaved [2]?
The not cleaved was “nc (not cleaved) after 24 h”.

Which results are given for “glucagon-like peptide-1(7–36): well known DP4 substrate (HAEGTFTSDVSSYLEGQAAKEFIAWLVKGR; ends and bridges not checked; UniProt P01275 98-127, looked up)”?
Cleavage by DP8 in vitro [3]: cleave; Cleavage by DP9 in vitro [4]: cleave

With “glucagon-like peptide-2(1–33): well known DP4 substrate (HADGSFSDEMNTILDNLAARDFINWLIQTKITD; Glucagon-like peptide 2; UniProt P01275 146-178, looked up)” as the molecule, how does the “Cleavage by DP8 in vitro” value [3] read?
The value was “cleave”.

And the “Cleavage by DP9 in vitro” value [4]?
Its value is “cleave”.

With “interferon-γ-inducible protein: chemokine, known DP4 substrate” as the molecule, how does the “DP8 cleavage of chemokines in vitro” value [3] read?
Its value is “cleavage”.

For “neuropeptide Y(1–36): well known DP4 substrate”, which “Cleavage by DP8 in vitro” value [3] is on record?
The value was “cleave”.

And the “Cleavage by DP9 in vitro” value [4]?
The value was “cleave”.

Which results are given for “peptide YY(1–36): well known DP4 substrate”?
Cleavage by DP8 in vitro [3]: cleave; Cleavage by DP9 in vitro [4]: cleave

B1: interferon-inducible T cell α-chemoattractant: chemokine, known DP4 substrate (protein, UniProt O14625 22-94, looked up)
C-X-C motif chemokine 11: FPMFKRGRCLCIGPGVKAVKVADIEKASIMYPSNNCDKIEVIITLKENKGQRCLNPKSKQARLIIKKVERKNF
Which “DP8 cleavage of chemokines in vitro” value [3] does the source give for B1 here?
Its value is “cleavage”.
